Measured values as given in patent publication EP0107165A1, “Substituted 9H-8-oxo-pyrimido(2,1-f)purine-2,4-diones, process for their production and pharmaceutical compositions containing them” (SCHERING CORPORATION, priority 1982, dated 1984).

Columns and labels:
RPAR Synovitis = assay: Reversed Passive Arthus-Reaction (RPAR) Synovitis technique; type: in vivo, male Lewis rats; conditions: dosage of 50 mpk, oral, split dose (half one hour before, half three hours after lesion induction); delta synovial weight about 17 hours after lesion induction; Lewis rat
Procedure: The anti-inflammatory potential of the compounds of the present invention may be determined by the Reversed Passive Arthus-Reaction (RPAR) Synovitis technique as set forth below using male Lewis rats (obtained from Charles River Breeding Laboratories) weighing 200-250 g. The potency of the compounds is determined using indo- methacin as the standard. On the basis of the test results, a dosage range of about 0.1 milligrams per kilogram of body weight per day to about 50 milligrams per kilogram of body weight per day in divided doses at about 4 hour intervals is recommended. For the preferred compounds of the invention tested, it is considered that the compounds are effectively non-toxic at the dose- rates indicated for treatment of inflammatory conditions. […]
The following morning (about 17 hours after lesion induction) the rat is killed and both knee joints are exposed. […] Differences in delta synovial weight between lesion controls and drug- treated rats are evaluated for statistical significance with an analysis of variance. Relative potencies are determined with a linear regression analysis. […]

[1] = Ulcerogenicity test (oral administration); type: in vivo; conditions: dosages as high as 100mpk

Question: Which results are given for CCCc1c(O)n(Cc2ccccc2)c2nc3c(c(=O)n(C)c(=O)n3C)n2c1=O [A, 9-benzyl-1,3-dimethyl-8-hydroxy-7-n-propyl-9H-6-. oxo-pyrimido[2,1-f]purine-2,4-dione]?
Answer: percentage inhibition of inflammation (I) (RPAR Synovitis): 46%; ulcerogenic [1]: not to be ulcerogenic

Question: With CCCCc1c(O)n(Cc2ccccc2)c2nc3c(c(=O)n(C)c(=O)n3C)n2c1=O [B, 9-benzyl-1,3-dimethyl-8-hydroxy-7-(n-butyl)-9H-6-oxo-pyrimido[2,1-f]purine-2,4-dione] as the molecule, how does the “percentage inhibition of inflammation (I)” value (RPAR Synovitis) read?
Answer: The value was 48%.
